SMILES | melting point
CCOC(=O)c1c([N+](=O)[O-])c(C)nn1C | 47 to 48 °C
FC(F)(F)c1n[nH]c(Cl)c1Cl | 58 to 60 °C
COc1ccc(COc2ccc(C=C3SC(=S)N(CC(=O)O)C3=O)cc2OCc2ccc(OC)cc2)cc1 | 151 to 155 °C
CN(C)S(=O)(=O)c1cccc(Cl)n1 | 53 to 55 °C
OCC1CCc2cc3ccccc3n2CC1 (stereo not drawn) | 90 to 91 °C
CCC1(O)CCC2C3=C(CCC21C)c1ccc(OC)cc1CC3 (stereo not drawn) | 105 to 120 °C
COC(=O)Cc1cc2c(s1)NC(=S)C(C)N=C2c1ccccc1Cl (stereo not drawn) | 196 to 197 °C
CN(C)c1ccc(-c2cc3ncc(C#N)c(Cl)c3s2)cc1 | 270 to 272 °C
COC(=O)C(Cl)=Cc1cc(-n2ncc(C(F)(F)F)c(C)c2=O)c(F)cc1Cl | 142 to 145 °C
COC(=O)c1cc(C2CCCO2)c(C(F)(F)F)cc1N (stereo not drawn) | 131 to 136 °C
CC(=O)Oc1ccc(CCC(=O)Nc2cc(C)c(O)c(C)c2)cc1OC(C)=O | 118 to 119 °C
Fc1cccc(OCc2nnc(-c3ccc4c(c3)CCO4)o2)c1 | 91 to 93 °C
COC=NC(C#N)=C(N)C#N | 138 to 139 °C
CCCOc1cnc(CCl)cc1O | 165 to 167 °C
COCc1ncnc(Cl)c1C | 37 to 38 °C
CC(C)(C)C(=O)OCOC(=O)COc1ccc(Cc2ccc(Cl)cc2)cc1 | 54 to 55 °C
O=[N+]([O-])c1cc2c(Nc3cc(Cl)c(Cl)cc3F)ncnc2cc1OCCOCCO | 149 °C
Cc1cc(C)cc(CC(=O)c2ccncc2)c1 | 96 to 97 °C
O=C(CCc1c(O)c2ccccc2oc1=O)c1ccccc1 | 149 to 151 °C
N[C@@H](Cc1ccccc1)C(=O)NCC(=O)Nc1ccc([N+](=O)[O-])cc1C(=O)c1ccccc1 | 144 to 146 °C

SMILES | melting point
CC(C)(C)OC(=O)N1CCC(C(=O)Nc2ccccc2Oc2ccc(OC(F)(F)F)cc2)CC1 | 45 to 48 °C
O=c1oc2c(c(O)c1-c1ccccc1)CCCC2 | 168 °C
OCC1CCCc2scnc21 (stereo not drawn) | 74 to 75 °C
CN(C)C(=O)N[C@H]1CC[C@H](CCN2CCC(c3cccc4c3CCO4)CC2)CC1 | 260 °C
O=C1CCC(N2C(=O)c3cccc(CNC(=O)Nc4ccc(Cl)c(Cl)c4)c3C2=O)C(=O)N1 (stereo not drawn) | 241 to 243 °C
Oc1ccc2c(-c3ccc(F)cc3F)noc2c1Cl | 186 to 190 °C
CN1CCc2c(F)c(F)c(N)c3c(=O)c(C(=O)O)cn1c23 | > 290 °C
Cc1ccc(S(=O)(=O)OCCCCCCCl)cc1 | 27 to 28 °C
CC1(C)N=C(O)N=C(NC(=O)c2nc(Cl)c(N)nc2N)N1 | 266 to 268 °C
CN1C(=O)C(C)(C)N=C(c2ccccc2Cl)c2c1ccc(N)c2Cl | 195 to 196 °C
CCCOc1ccc(-c2ccc3c(c2)C=C(C(=O)Nc2ccc(CN(C)C4CCOCC4)cc2)CCN3C=O)cc1 | 207 to 209 °C
O=c1ccc2ccc(CC3CO3)cc2o1 (stereo not drawn) | 110 to 112 °C
COc1cc2c(cc1OC)C(c1ccccc1OC)=NN=C(C)C2 | 119 to 121 °C
CC(=O)c1cc(Cl)cc(Oc2ncccc2C(=O)NCc2ccc(C(C)(C)O)cc2)c1 | 110 to 112 °C
Cc1cc(C)c(C(=O)c2c(C)cccc2C)c(OCC(O)CNC(C)C)c1 (stereo not drawn) | 102 to 104 °C
COC(=O)N(N=C(C)C)C(=O)c1ccc(Br)cc1 | 103 to 104 °C
CCOC(=O)c1c(-c2cc(C)c(O)c(C)c2)c(C)n2c1-c1cc(OC)c(OC)cc1C(C)(C)C2 | 200 to 202 °C
COc1cc2c(cc1O)CCN(C(=O)c1ccc(OC)c(OC)c1)C2=O | 199 to 200 °C
CCCCCCCCCCCCCCCCCNC(=O)O[C@@H]1CCO[C@H]1CO (relative stereo) | 77 to 78 °C
N#Cc1ccc(NC(=S)Nc2ncccc2OCc2ccccc2)cc1 | 163 to 165 °C

SMILES | melting point
CC1=C(c2ccc(C(=O)N3Cc4ccc(C(=O)C(Cl)(Cl)Cl)n4Cc4ccccc43)cc2)CCCC1 | 171 °C
CC1(C)CCC(C)(C)c2ccccc21 | 71 to 72 °C
N#Cc1ccc(-c2ccc3nncn3n2)cc1 | 272 to 274 °C
Cc1cc(C)c(OP(Oc2c(C)cc(C)cc2C)Oc2c(C)cc(C)cc2C)c(C)c1 | 92 to 95 °C
OC1C=CC2COC1O2 (stereo not drawn) | 65.6 to 66.4 °C
CCN(CC)C(=O)c1c(Cl)cccc1C(=O)Nc1ccc(Cn2nc(C(F)(F)F)cc2C(F)(F)F)cc1C | 105 to 107 °C
O=C(C=Cc1ccc(C(F)(F)F)cc1)N1CCc2c([nH]c3ccccc23)C1c1ccccc1 (stereo not drawn) | 211 °C
O=[N+]([O-])c1cn(C2OC(CO)C(O)C2O)nn1 (stereo not drawn) | 172 to 174 °C
ON=C1CCC2(O)C3Cc4ccc(O)c5c4C2(CCN3CC2CC2)C1O5 (stereo not drawn) | 235 to 236 °C
Cn1c(C(N)=O)c2n(c1=O)-c1ccc(Cl)cc1C(c1ccccc1Cl)=NC2 | 158 to 160 °C
O=Cc1cn(-c2cccnc2)nc1-c1ccc([N+](=O)[O-])o1 | 237 to 238 °C
N#CC1Cc2cc3c(cc21)NCC3 (stereo not drawn) | 85 to 87 °C
Nc1ccc(S(F)(F)(F)(F)F)cc1 | 63 to 65 °C
O=C(Nc1ccc(OCCCCl)c2ccccc12)c1cc(F)cc(N2CCCCC2)c1 | 181 to 182 °C
CC(O)Cn1nc2c3c(cc(O)cc31)CCC2 (stereo not drawn) | 153 to 155 °C
COc1cc(OC)c2cnnc(Cl)c2c1 | 167 °C
CC1=CC(OC(=O)c2ccc([N+](=O)[O-])cc2)C2OC1(OCCO)CC2(C)C (stereo not drawn) | 166 to 168 °C
NC(=O)CNc1ncccc1[N+](=O)[O-] | 250 to 251 °C

More lines, now with the values ahead:

melting point | SMILES
59.5 to 60.5 °C | CCc1cc(=O)c2cc(C(C)CO)ccc2o1 (stereo not drawn)
59 to 61 °C | CCNc1c(C(=O)OCC)c(C)nc(N2CCN(C)CC2)c1[N+](=O)[O-]
90 to 91 °C | CC1CCCC(C)N1CCCC(O)(c1ccccc1)c1ccccc1 (stereo not drawn)
114 to 116 °C | O=C1COc2cc(S(=O)(=O)c3ccccc3)ccc2N1CC1=NCCN1
89 to 91 °C | CCc1c(OC)nc(OC)nc1C(=O)c1cc(C)cc(C=O)c1
197 to 198 °C | COc1ccccc1NC(=O)Nc1ccc(CC(=O)NC(CC(C)C)c2ncc(CCC(=O)O)s2)cc1 (stereo not drawn)
206 to 207 °C | CC(C)OC(=O)N1CCN(c2ccn3ncc(-c4cccn(C)c4=O)c3n2)CC1
123 to 124 °C | CCn1c2cc(C)ccc2c2c3ccccc3ccc21
63 °C | CN1CC=CC(c2cc3ccccc3o2)C1 (stereo not drawn)
70 to 72 °C | COCc1ccc2c(c1)ncn2-c1cccc(-c2ccccc2)c1
134 to 136 °C | OC(Cc1cc(-c2ccccc2)on1)N1CCOCC1 (stereo not drawn)
66.8 °C | COCCOC(=O)c1cncn1C1CCCc2ccccc21 (stereo not drawn)
302 to 304 °C | OCc1cnc2cc(C(F)(F)F)ccc2c1O
79 to 81 °C | CCCCCCCCCC(Oc1ccc(C2=CCCCCC2)cc1)C(=O)O (stereo not drawn)
149 °C | CCOC(=O)c1cccc2c1c1c(C)ccc(C)c1n2S(=O)(=O)c1ccc(C)cc1
90 to 91 °C | CNc1c(C(=O)OC)c(C)nc2c1c1ccccc1n2C
119 °C | CCCCc1oc2ccccc2c1C(=O)c1ccc(O)cc1
158 to 159 °C | O=C(O)CCCCCCCOc1nc(-c2ccccc2)c(-c2ccccc2)n1-c1ccccc1
185 °C | COc1cc(Nc2nccc(-c3ccccn3)n2)cc(OC)c1OC
106 °C | COc1ccc(-c2nc(S(=O)(=O)c3ccccc3)[nH]c2-c2ccc(OC)cc2)cc1
82 to 84 °C | Cc1nc(-n2cc(CCC3CCCCC3)nn2)sc1C(=O)NCc1ccccc1
222 to 224 °C | NC1=NS(=O)N=C1NCCCOc1cccc2c(N3CCOCC3)nccc12 (stereo not drawn)
148 to 150 °C | CCCc1nc2c(N)nc3ccccc3c2n1CCC(OCC)OCC

melting point | SMILES
147 °C | CC[C@@H]1CCCN1CCc1cc2cc(-c3ccc(C#N)cc3)ccc2o1
112 to 114 °C | CCCCCCCCCCCCc1cc(NC(=O)Nc2c(C(C)C)cccc2C(C)C)on1
102 to 106 °C | COc1ccc(-c2ccccc2)cc1[N+]([O-])=NC(=O)OC(C)C
160 to 162 °C | Nc1nc2ccc(C(O)C(CNC(=O)c3ccccc3)N3CCC(Cc4ccccc4)CC3)cc2s1 (stereo not drawn)
204 to 206 °C | CCCCCCCNC(=O)Nc1ccc(N(C)C)cc1C(=O)NC1CCN(C(c2ccccc2)c2ccccc2)CC1
140 °C | CN1CCN(C(=O)COc2cc(-c3ccccc3)nc3ccccc23)CC1=O
274 to 279 °C | Cc1ccccc1Cc1ccc(-c2cnn3c(O)ncnc23)cc1
130 to 131 °C | Cc1nc(C)c(Cl)c(NCc2ccc(OCc3ccccc3)cn2)n1
255 to 257 °C | Cc1cc(-c2nnc3c4cccnc4c(OCc4ncnn4C)nn23)no1
130 °C | COc1ccc(S(=O)(=O)N(CC(N)=O)c2ccc(N(C)C)cc2Cc2ccccc2Cl)cc1OC
110 °C | O=c1oc(Oc2ccc(Cl)cc2)nn1-c1ccccc1Cl
202 to 204 °C | COc1ccc2c(c1)sc1ncc(CO)n12
164 to 166 °C | COCc1cccc2oc(C(=O)O)c(C)c12
165 to 166 °C | CCc1c(-c2ccccc2)n(-c2ccccc2Cl)c(-c2ccccc2)cc1=O
126 to 128 °C | CCCn1c(=O)c2c(N)n(CCCl)nc2n(Cc2ccccc2)c1=O
138 to 139 °C | O=C(NCc1ccccc1)OCCc1noc(-c2ccc(CN3CCCCCC3)s2)n1
118 °C | C[C@H](c1ccc(F)cc1)N1CCN(c2cc(Oc3cccc4ncc(N)nc34)ncn2)CC1
159 to 160 °C | CC(C(=O)O)c1cccc2c1Oc1ccccc1CC2=O (stereo not drawn)
94 to 95 °C | CC(C)Oc1ccc2c(c1)Oc1ccccc1S2(=O)=O
246 to 247 °C | COc1ccccc1-n1c(=O)[nH]c2c(OC)cccc21
147 to 148 °C | COC(=O)C=Cc1nn(-c2ccccc2)c2c1CCC2
85 to 90 °C | CCN1Cc2ccccc2N(CC)C(Nc2nc(Nc3cc4c(cc3OC)CCN(CC(=O)N(C)C)CC4)ncc2Cl)C1 (stereo not drawn)
